These results are taken from ChEMBL document CHEMBL1201862, “PubChem BioAssay data set” (2004).

Some test systems named below: CCRF-CEM; COLO 205; Hs-578T; IGROV-1; M14; MCF7; MOLT-4; Malme-3M; PC-3; SF-295; SK-MEL-2; SK-OV-3; SN12C; SNB-75; SR; U-251; UACC-257; SF-539; A498.
Assay in all cases: NCI tumour cell line growth inhibition, 48 h

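Cells were grown in 96-well plates and exposed to each compound for 48 hours at five concentrations; endpoints were interpolated linearly between bracketing concentrations, or set to the highest concentration if not reached. GI50 is the concentration that inhibits growth by half.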 Active and inactive are the calls of the source. Cut-off read from the data, not from the text of the source: active = GI50 up to about 1.1 µM and inactive = higher. Non-standard residues stand in square brackets, D forms with d. Residues, ends and D or L forms follow the SMILES beside them. *: point of attachment. Ac5c = NC1(C(=O)O)CCCC1; Boc = CC(C)(C)OC(=O)*; tBu = CC(C)(C)*

In the case of `CSc1nc(NC(C)C)c2c(n1)Sc1nc3ccccc3n1C2O` (centres undefined), the GI50 with CCRF-CEM was 1.75 µM (inactive); in the test on COLO 205, 1.65 µM (inactive); in the test with Hs-578T, 2.79 µM (inactive); in the test with IGROV-1 it was 8.04 µM (inactive); in the test on M14, 5.96 µM (inactive); in the test on MCF7, 0.0465 µM (active). Moreover, the GI50 is 2.84 µM (inactive) with MOLT-4; 1.98 µM (inactive) with Malme-3M; 1.83 µM (inactive) in the test on PC-3; 3.45 µM (inactive) in the test on SF-295; 7.73 µM (inactive) in the test on SK-MEL-2; 5.28 µM (inactive) in the test on SK-OV-3. Besides, the GI50 is 9.57 µM (inactive) with SN12C; 4.61 µM (inactive) in the test with SNB-75; 2.84 µM (inactive) in the test with SR; 3.11 µM (inactive) in the test with U-251; 40.9 µM (inactive) in the test on UACC-257.

With `CCC1=CCC23C(=O)C=CC(=O)C2(C1)C(=O)c1cccc(OC)c1C3=O` (centres undefined), the GI50 in the test on CCRF-CEM was 3.26 µM (inactive); in the test with COLO 205 it was 14.9 µM (inactive); with Hs-578T it was 20.2 µM (inactive); in the test with IGROV-1 it was 13 µM (inactive); in the test on M14, 16 µM (inactive); in the test on MCF7, 14.3 µM (inactive). Also, the GI50 is 3.87 µM (inactive) with MOLT-4; 15.9 µM (inactive) in the test on Malme-3M; 14.9 µM (inactive) in the test with PC-3; 24.3 µM (inactive) with SF-295; 18.4 µM (inactive) with SF-539; 22.7 µM (inactive) in the test on SK-MEL-2. The GI50 in the test on SN12C is 18.3 µM (inactive); in the test on SNB-75, 15.6 µM (inactive); with SR, 9.82 µM (inactive); in the test with U-251, 23 µM (inactive); with UACC-257 it was 16.3 µM (inactive).

As for `Cc1ccccc1OC(C)C(=O)NN1C(=O)CC(=O)N(c2ccccc2)C1=S` (centres undefined), the GI50 in the test with A498 was 36 µM (inactive); in the test with COLO 205 it was 68.4 µM (inactive); with Hs-578T, > 100 µM (inactive); in the test on IGROV-1, 80.4 µM (inactive); in the test with M14, 52 µM (inactive); in the test on MCF7 it was 42.3 µM (inactive). For the same compound, the GI50 is 34 µM (inactive) in the test on MOLT-4; > 100 µM (inactive) with Malme-3M; 72.1 µM (inactive) with PC-3; 46.3 µM (inactive) in the test with SF-295; > 100 µM (inactive) in the test with SF-539; 72.9 µM (inactive) with SK-MEL-2. The GI50 in the test on SK-OV-3 was > 100 µM (inactive); with SN12C, 43.7 µM (inactive); in the test on SNB-75 it was 48.3 µM (inactive); in the test on U-251, 62.7 µM (inactive); in the test with UACC-257, 58.3 µM (inactive).

In the case of `C=Cc1nc(C#N)c(N)o1`, the GI50 in the test with A498, in the test with CCRF-CEM, in the test with COLO 205, in the test on Hs-578T, in the test with IGROV-1 and with M14 was > 100 µM (inactive) each time. In addition, the GI50 in the test on MCF7, in the test with MOLT-4, with Malme-3M, in the test with PC-3, with SF-295 and with SF-539 was > 100 µM (inactive) each time. Further, the GI50 with SK-MEL-2, in the test on SK-OV-3, with SN12C, in the test with SNB-75, in the test on U-251 and in the test on UACC-257 was > 100 µM (inactive) each time.

For the compound `COc1cc2c(cc1O)-c1c(cnn1-c1ccc([N+](=O)[O-])cc1)CCC2`, the GI50 was 23 µM (inactive) in the test with A498; 2.94 µM (inactive) in the test on CCRF-CEM; 20.3 µM (inactive) in the test on COLO 205; 19.7 µM (inactive) in the test on Hs-578T; 4.78 µM (inactive) with IGROV-1; 16.6 µM (inactive) in the test with M14. Also, the GI50 in the test on MCF7 is 26.8 µM (inactive); in the test with MOLT-4 it was 1.02 µM (active); in the test on Malme-3M, 5.82 µM (inactive); with PC-3, 10.8 µM (inactive); with SF-295, 10.9 µM (inactive); in the test on SF-539, 11.1 µM (inactive). Also, the GI50 was 17.4 µM (inactive) in the test on SK-MEL-2; 44.3 µM (inactive) in the test on SK-OV-3; 2.86 µM (inactive) in the test with SN12C; 22.9 µM (inactive) in the test on SNB-75; 11.7 µM (inactive) in the test with U-251; 15.5 µM (inactive) in the test with UACC-257.

With `NC(=O)NCCCC(NC(=O)OCCCCCCn1ccc(=O)[nH]c1=O)C(=O)O` (centres undefined), the GI50 in the test on CCRF-CEM, in the test with COLO 205, in the test with Hs-578T, in the test on IGROV-1, with M14 and in the test on MCF7 was > 100 µM (inactive) each time. Further, the GI50 in the test with MOLT-4, in the test with PC-3, in the test with SF-295, in the test on SF-539, in the test on SK-MEL-2 and with SK-OV-3 was > 100 µM (inactive) each time. Moreover, the GI50 was 50.2 µM (inactive) in the test on SN12C; > 100 µM (inactive) in the test with SNB-75; 9.42 µM (inactive) with SR; > 100 µM (inactive) with U-251; > 100 µM (inactive) with UACC-257.

As to `Cc1ccc(S(=O)(=O)Nn2c(-c3ccccc3)c(C#N)c(-c3ccc([N+](=O)[O-])cc3)c(C#N)c2=O)cc1`, the GI50 in the test on A498 was > 100 µM (inactive); with CCRF-CEM it was 32.1 µM (inactive); in the test with COLO 205, > 100 µM (inactive); in the test on Hs-578T, 88.7 µM (inactive); in the test on IGROV-1, 70.8 µM (inactive); in the test with M14, > 100 µM (inactive). Further, the GI50 is 61.2 µM (inactive) with MCF7; 45.6 µM (inactive) in the test with MOLT-4; > 100 µM (inactive) in the test on Malme-3M; > 100 µM (inactive) with PC-3; > 100 µM (inactive) with SF-295; > 100 µM (inactive) in the test on SF-539. Moreover, the GI50 with SK-MEL-2 was > 100 µM (inactive); with SK-OV-3 it was > 100 µM (inactive); with SN12C it was > 100 µM (inactive); in the test on SNB-75, 96.6 µM (inactive); in the test on U-251 it was > 100 µM (inactive); in the test on UACC-257 it was > 100 µM (inactive).

For `CN(Cc1cnc2nc(N)nc(N)c2n1)c1ccc(C(=O)NC(CCC(=O)NC(CC(P(=O)(O)O)P(=O)(O)O)C(=O)O)C(=O)O)cc1` (centres undefined), the GI50 in the test on COLO 205, with Hs-578T, in the test with IGROV-1, in the test with M14, in the test with MCF7 and in the test with MOLT-4 was > 100 µM (inactive) in each case. The GI50 with Malme-3M, in the test on PC-3, with SF-295, in the test with SK-MEL-2, in the test on SK-OV-3 and in the test on SN12C was > 100 µM (inactive) in each case. Moreover, the GI50 in the test with SNB-75, in the test on SR, in the test on U-251 and in the test on UACC-257 was > 100 µM (inactive) each time.

Consider `CC(=O)O[C@H](C[C@@H](C)[C@H]1C(=O)[C@H](O)[C@@]2(C)C3CC[C@H]4C(C)(C)[C@@H](OC5OCC(O)C(O)C5O)CC[C@@]45C[C@@]35CC[C@]12C)[C@@H]1OC1(C)C` (some centres undefined), for which the GI50 in the test on A498 was 15.9 µM (inactive); in the test on CCRF-CEM, 1.93 µM (inactive); with COLO 205 it was 22 µM (inactive); in the test on Hs-578T it was 38 µM (inactive); in the test with IGROV-1 it was 16.2 µM (inactive); in the test with M14 it was 31.1 µM (inactive). Also, the GI50 was 17.9 µM (inactive) in the test on MCF7; 17.2 µM (inactive) in the test with Malme-3M; 15.2 µM (inactive) with PC-3; 16.3 µM (inactive) with SF-295; 16.3 µM (inactive) in the test with SF-539; 16 µM (inactive) in the test with SK-MEL-2. For the same compound, the GI50 in the test with SK-OV-3 was 12.7 µM (inactive); in the test on SN12C it was 18.9 µM (inactive); with SNB-75, 12.1 µM (inactive); with U-251, 16.3 µM (inactive); with UACC-257, 18.6 µM (inactive).

As to `CC(OC(C)(C)C)C1NC(=O)C(CCCCNC(=O)OC(C)(C)C)NC(=O)C(Cc2c[nH]c3ccccc23)NC(=O)C(Cc2ccccc2)NC(=O)C2(CCCC2)NC(=O)C(Cc2ccccc2)NC1=O` (centres undefined) (cyclo([Ac5c]FWK(Boc)T(tBu)F); configuration not given here), the GI50 in the test on CCRF-CEM was 28.2 µM (inactive); in the test on COLO 205, 20.4 µM (inactive); in the test with Hs-578T, 33.3 µM (inactive); in the test with IGROV-1, 16.2 µM (inactive); with M14 it was 16.7 µM (inactive); in the test on MCF7 it was 18.5 µM (inactive). Moreover, the GI50 in the test with MOLT-4 was 7.71 µM (inactive); in the test on Malme-3M it was 27.3 µM (inactive); in the test on PC-3, 26.9 µM (inactive); in the test with SF-295 it was 29.9 µM (inactive); with SF-539, 36.9 µM (inactive); in the test on SK-OV-3, 68.4 µM (inactive). The GI50 with SN12C was 29.9 µM (inactive); in the test on SR it was 32.2 µM (inactive); in the test on U-251 it was 15.8 µM (inactive); with UACC-257, 20.7 µM (inactive).

`C=C1[C@@H]([C@@]2(C)C=CC(=O)C(C)(C)[C@@H]2CC(=O)OC)CC[C@@]2(C)[C@H](c3ccoc3)OC(=O)[C@H]3O[C@]132` [ANDIROBIN]: the GI50 with A498 was 79.4 µM (inactive); with CCRF-CEM, > 100 µM (inactive); in the test on COLO 205, 93.1 µM (inactive); with Hs-578T, > 100 µM (inactive); in the test on IGROV-1, > 100 µM (inactive); in the test on M14, > 100 µM (inactive). In addition, the GI50 with MCF7 was > 100 µM (inactive); in the test with MOLT-4, 83.6 µM (inactive); in the test with Malme-3M, > 100 µM (inactive); in the test with PC-3, 40.7 µM (inactive); with SF-295, 87.5 µM (inactive); in the test with SF-539 it was > 100 µM (inactive). The GI50 was > 100 µM (inactive) with SK-MEL-2; > 100 µM (inactive) with SK-OV-3; > 100 µM (inactive) with SN12C; 46.2 µM (inactive) in the test with SNB-75; > 100 µM (inactive) in the test on U-251; > 100 µM (inactive) with UACC-257.
